The source of these data is patent US9182408B2 (priority 2004, dated 2015).

Read-outs that look alike come from different tables or passages of the source.

The target in assay [1] is ERα (Homo sapiens, UniProt P03372). Here is the method: (§1) Yeast two-hybrid experiments are carried out in the yeast strain (MATa; his3-Δ200; leu2-3,112; trp1-901; [plexAop]4::HIS3; [plexAop]8::lacZ), in which expression of the two reporter genes HIS3 and LacZ is under the control of the LexA operator sequence. This yeast strain cannot grow in absence of histidine in the culture medium, and yeast growth can be rescued only if expression of HIS3 gene is induced. Similarly, the LacZ reporter gene encoding the β-galactosidase marker is not expressed in this yeast strain. The bait plasmids encoding either the full-length or a region of the target protein (Nuclear Receptor, viral proteins for example), and the random peptide/VP16-AD library were transformed into the yeast strain and yeast colonies growing in absence of histidine were selected. […] Growth of false positive clones may be prevented by adding 3-amino-triazole (3AT), a competitive inhibitor of HIS3, to the medium. […] All conformation sensitive peptides dissociated by both target protein agonists and antagonists were selected for further characterization with the aim to develop screening platforms that allow the search of both activators and inhibitors of target protein in one single assay. The biological activity of each isolated conformation sensitive peptide is reconfirmed by isolation of conformation sensitive peptide encoding plasmids, re-transformation into yeast strain and analysis of HIS3 and lacZ gene expression in absence of histidine and in presence of target protein or non-target protein ligands in a spot test, as well as in a quantitative LacZ assay. 4.1—Identification in Yeast of Conformation Sensitive Peptides Interacting with the Estrogen Receptor
The bait plasmids encoding the full length or the DEF regions of the ERα and the prey peptide/VP16-AD VV01 library (diversity of 6.10^7) were transformed into the yeast strain. Yeast colonies growing in absence of histidine were selected. […] Growth of false positive clones was prevented by adding 3-amino-triazole (3AT), a competitive inhibitor of HIS3 to the medium. […] Out of the 484 clones, 40 were randomly picked for further studies.
The biological activity of each isolated 3D-Screen peptide was reconfirmed by isolation of 3D-Screen encoding plasmids, retransformation into the yeast strain (MATa; his3-Δ200; leu2-3,112; trp1-901; [plexAop]4::HIS3; [plexAop]8::lacZ) and analysis of HIS3 and lacZ gene expression in absence of Histidine and in presence of ER or non-ER ligands in a spot test.

For assay [2], the system named is ERα. The text has this: FIG. 10: Generation of a 3D-screen human cell screening platform for ERα Hela cells are transiently transfected with three expression plasmids encoding the reporter gene luciferase (eg. UAS-Luc), the target protein fused to a DNA Binding Domain (DBD) and the conformation sensitive peptide previously screened in yeast and fused to the VP16-AD, respectively with the jetPEI reagent. […] This platform was used to screen a small molecule library.
Hela cells are transiently transfected with three expression plasmids encoding the reporter gene luciferase (eg. UAS-Luc), the ERα fused to a DNA Binding Domain (DBD) and the conformation sensitive peptide previously screened in yeast and fused to the VP16-AD, respectively, with the jetPEI reagent. Cells are grown in the absence of any ligand (DMSO, lane 1; ethanol, lane 2), or in the presence of ER ligands (agonists E2, DES or antagonists 4OHT, lane 3-5) or non-ER ligands (Dex and 9C-RA; lanes 8 & 9), or in the presence of Estren (lane 6) at 100 nM (right panel) and 10 μM (left panel).
Hela cells are transiently transfected with three expression plasmids encoding the reporter gene luciferase (eg. UAS-Luc), the ERα fused to a DNA Binding Domain (DBD) and the conformation sensitive peptide previously screened in yeast and fused to the VP16-AD, respectively, with the jetPEI reagent.
HeLa cells were transiently transfected with plasmid using the optimized jetPEI transfection protocol (PolyPlus Transfection, Illkirch, France). […] Chemical ligands are added to the cell culture medium 24H after transfection. Luciferase activity was measured 24H later. […] Cells are trypsinised and plated in 96 well-plates (or 384 well-plates) at 5×10^4 cells per well 24H after transfection, and small molecules are added upon cell adhesion. Luciferase activity is measured 24 H later.
The three expression plasmids, UAS-luc, full-length ER and 3D-screen/VP16AD (#30-2) were co-transfected in Hela cells in large dishes. Cells were then reseeded in a 96-well plate format 24 H after transfection and chemical compounds are added upon cell adhesion. Luciferase activity was measured 24 H later. Internal controls were also included, consisting in known ER- or non-ER ligands as previously indicated.

The target in a further assay is wild-type ERα (Homo sapiens, UniProt P03372). The note with it: HeLa, ERE-luc, 24 H. Here is the method:
Furthermore, the potential agonist and antagonist properties of these hits were investigated in HeLa cells by co-transfection of an ERE-luc reporter plasmid, in which the luciferase gene is under the control of the estrogen-responsive elements (ERE), and an expression plasmid encoding the wild-type ERα. Transfections were performed as previously described for the primary screening, and cells are inclubated for 24 H either in the presence of the chemical hits alone to test for their agonist activity, or in the presence of the hit together with 100 nM E2 to test for their antagonist activity.

The test system of another assay is bone cells. Conditions: cited from earlier work.
Assay [3] has as its target human retinoic acid receptor alpha (RARα) (Homo sapiens, UniProt P10276). The note with it: RAR-DEF bait, 28 selected clones, medium without histidine. Here is the method: as §1
In assay [4] the target is NS5B protein of Hepatitis C virus (Hepatitis C virus genotype 1b, UniProt P26663). The note with it: NS5BΔ21 bait, medium without Histidine; Gliotoxin 20 μM.
Protocol: Yeast two-hybrid experiments are carried out in the yeast strain (MATa; his3-Δ200; leu2-3,112; trp1-901; [plexAop]4::HIS3; [plexAop]8::lacZ), in which expression of the two reporter genes HIS3 and LacZ is under the control of the LexA operator sequence. This yeast strain cannot grow in absence of histidine in the culture medium, and yeast growth can be rescued only if expression of HIS3 gene is induced. Similarly, the LacZ reporter gene encoding the β-galactosidase marker is not expressed in this yeast strain. The bait plasmids encoding either the full-length or a region of the target protein (Nuclear Receptor, viral proteins for example), and the random peptide/VP16-AD library were transformed into the yeast strain and yeast colonies growing in absence of histidine were selected. […] Growth of false positive clones may be prevented by adding 3-amino-triazole (3AT), a competitive inhibitor of HIS3, to the medium. […] The biological activity of each isolated conformation sensitive peptide is reconfirmed by isolation of conformation sensitive peptide encoding plasmids, re-transformation into yeast strain and analysis of HIS3 and lacZ gene expression in absence of histidine and in presence of target protein or non-target protein ligands in a spot test, as well as in a quantitative LacZ assay. […]

Sequence of ERα (Homo sapiens, UniProt P03372) (P03372 311-547 limits assumed): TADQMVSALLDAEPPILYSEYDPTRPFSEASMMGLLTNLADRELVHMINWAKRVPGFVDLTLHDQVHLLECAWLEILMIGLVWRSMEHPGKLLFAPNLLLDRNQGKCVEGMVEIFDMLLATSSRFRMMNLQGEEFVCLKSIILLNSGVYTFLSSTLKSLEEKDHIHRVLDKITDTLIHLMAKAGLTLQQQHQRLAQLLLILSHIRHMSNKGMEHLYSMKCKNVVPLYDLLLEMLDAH
Sequence of human retinoic acid receptor alpha (RARα) (P10276 183-417 limits assumed): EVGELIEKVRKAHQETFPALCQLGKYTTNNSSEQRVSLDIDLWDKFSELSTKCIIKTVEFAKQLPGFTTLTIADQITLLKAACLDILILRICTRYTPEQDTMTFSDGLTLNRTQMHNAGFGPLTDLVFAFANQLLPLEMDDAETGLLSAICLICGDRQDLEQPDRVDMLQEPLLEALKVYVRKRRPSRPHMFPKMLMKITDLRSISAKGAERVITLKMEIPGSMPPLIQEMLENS
Sequence of wild-type ERα (P03372 whole entry): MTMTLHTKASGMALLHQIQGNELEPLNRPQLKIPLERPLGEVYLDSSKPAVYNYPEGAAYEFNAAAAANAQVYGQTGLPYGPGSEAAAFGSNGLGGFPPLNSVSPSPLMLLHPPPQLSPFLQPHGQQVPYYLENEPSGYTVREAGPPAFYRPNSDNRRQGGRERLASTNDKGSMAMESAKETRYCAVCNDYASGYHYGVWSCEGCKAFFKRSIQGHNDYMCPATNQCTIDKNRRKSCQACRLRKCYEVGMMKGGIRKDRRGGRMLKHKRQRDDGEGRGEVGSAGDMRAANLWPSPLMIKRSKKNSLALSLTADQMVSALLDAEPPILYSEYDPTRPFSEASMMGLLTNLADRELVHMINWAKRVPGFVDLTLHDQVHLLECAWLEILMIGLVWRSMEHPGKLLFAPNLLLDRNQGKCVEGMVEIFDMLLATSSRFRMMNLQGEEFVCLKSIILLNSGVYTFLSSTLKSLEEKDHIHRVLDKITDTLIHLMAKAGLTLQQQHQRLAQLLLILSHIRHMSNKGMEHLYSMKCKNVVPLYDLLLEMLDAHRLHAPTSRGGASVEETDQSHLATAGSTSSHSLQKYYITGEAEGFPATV

On to “F C T P I R M F Y R A P L W D L N K [peptide 30-2]”, for which, at ERα [1], the “peptide binding to ER in the presence of non-ER ligands (growth, lacZ)” value was “all clones are growing under selective conditions and stain positive for lacZ”; the “peptide binding to ER on addition of ER ligands (growth under selective conditions)” value is “clones are not growing under selective conditions”; the “reporter genes (His3 and LacZ) on interaction of peptide with ER in the un-liganded form” value (from here on “reporter genes (His3 and LacZ)”) is “clones are growing under selective conditions and stain positive for lacZ”.
Consider `C[C@]12CC[C@@H]3c4ccc(O)cc4C[C@@H](CCCCCCCCC[S+]([O-])CCCC(F)(F)C(F)(F)F)[C@H]3[C@@H]1CC[C@@H]2O` (stereo partly drawn) [ICI182780], for which, in the assay on ERα [2], the “luciferase expression (FIG. 13)” value was “preventing the expression of luciferase” and the “luciferase expression upon addition of ligand” value was “strongly reduced”.
As to “S C C T Q H V C Y R P R A Y R [peptide 5-21]”, on ERα [1], the “peptide binding to ER in the presence of non-ER ligands (growth, lacZ)” value is “all clones are growing under selective conditions and stain positive for lacZ”; the “peptide binding to ER on addition of ER ligands (growth under selective conditions)” value is listed as “clones are not growing under selective conditions”; the “reporter genes (His3 and LacZ)” value was “clones are growing under selective conditions and stain positive for lacZ”.
As to Estren, the “luciferase expression (FIG. 11)” value in the assay on ERα [2] is recorded as “preventing the expression of luciferase”. For the same compound, at wild-type ERα, the “agonist activity (hit alone)” value is recorded as “do not allow the identification” and the “antagonist activity (hit together with 100 nM E2)” value was “do not allow the identification”. The “apoptosis of bone cells and effect on reproductive organs” value with bone cells was “prevent apoptosis of bone cells without affecting the reproductive organs”.
Regarding 9-cis retinoic acid, in the assay on ERα [2], the “luciferase expression (FIG. 11)” value is recorded as “strong” and the “luciferase expression (FIG. 13)” value is given as “strong”. Besides, the “effect of added ligand on growth of yeast clones (dissociation of peptide/VP16AD from RARα)” value in assay [3] is given as “suppresses the growth of 14 of these clones”. The “effect of added ligand on growth and LacZ expression of yeast clones (dissociation of peptide/VP16AD from ERα)” value on ERα [1] is “no effect”.
For the compound `CN1C(=O)[C@]23CC4=CC=C[C@H](O)[C@H]4N2C(=O)[C@@]1(CO)SS3` [gliotoxin], the “effect of added compound on yeast growth and HIS3/LacZ expression (dissociation of peptides from NS5B)” value in assay [4] was “shut-off of HIS3 and the prevention of growth of the yeast”.
In the case of `CC1=C(/C=C/C(C)=C/C=C/C(C)=C/C(=O)O)C(C)(C)CCC1` [all-trans-Retinoic Acid], the “luciferase expression (FIG. 13)” value in the assay on ERα [2] was “strong”. The “effect of added ligand on growth of yeast clones (dissociation of peptide/VP16AD from RARα)” value is recorded as “suppresses the growth of 14 of these clones” in assay [3] and “selective dissociation of the peptide/VP16AD protein induced only by the AT-RA ligand” in assay [3] (listed as AT-RA).
As for “S I T T L F Y H A M F G F V P [peptide 9-23]”, at ERα [1], the “peptide binding to ER in the presence of non-ER ligands (growth, lacZ)” value is “all clones are growing under selective conditions and stain positive for lacZ”; the “peptide binding to ER on addition of ER ligands (growth under selective conditions)” value is recorded as “clones are not growing under selective conditions”; the “reporter genes (His3 and LacZ)” value is “clones are growing under selective conditions and stain positive for lacZ”.
Consider `NC(=O)c1ncn([C@@H]2O[C@H](CO)[C@@H](O)[C@H]2O)n1` [ribavirin], for which the “effect of added compound on yeast growth and HIS3/LacZ expression (dissociation of peptides from NS5B)” value in assay [4] is on record as “no effect on yeast growth”.
